From patent publication US20250376446A1, “[…] OF A […] CANNABINOID” (Jazz Pharmaceuticals Research UK Limited, priority 2022, published 2025)

What was measured:
[1] = test system: mouse model of generalised seizure (tonic hind limb extensor convulsions); test: Maximal electroshock seizure threshold (MEST) test in the mouse; conditions: for % change from vehicle (CC50) / CC50 +/- SEM: 30 min post dose
Protocol: The efficacy of compound 1 was tested in a mouse model of generalised seizure, the maximal electroshock seizure threshold (MEST) test.
The maximal electroshock seizure threshold (MEST) test is widely utilized preclinically to evaluate pro-or anti-convulsant properties of test compounds (Loscher et al., 1991).
In the MEST test the ability of a drug to alter the seizure threshold current required to induce hind limb tonic extensor convulsions is measured according to an “up and down” method of shock titration (Kimball et al., 1957). An increase in seizure threshold is indicative of anti-convulsant effect.
The ability of a test compound to alter the stimulus intensity, expressed as current (mA), required to induce the presence of tonic hind limb extensor convulsions, is assessed in the MEST.
Naïve mice were acclimatised to the procedure room in their home cages for up to 7 days, with food and water available ad libitum.
All animals were weighed at the beginning of the study and randomly assigned to treatment groups based on a mean distribution of body weight across groups.
The first animal within a treatment group was given a shock at the expected or estimated CC50 current. For subsequent animals, the current was lowered or raised depending on the convulsions outcome from the preceding animal, in intervals of 5 mA.
Data generated from each treatment group were used to calculate the CC50+SEM values for the treatment group.
Vehicle: (5% ethanol, 10% solutol, 85% Saline) was prepared as follows: 1 mL of ethanol, 2 mL of solutol were warmed to 60° C., in 17 mL of saline (1:2:17).
The test compound (compound 1) was administered at 2, 20 and 200 mg/kg (i.p.) in a 1:2:17 ethanol: solutol: 0.9% saline formulation.
The data for each treatment group were recorded as the number of +'s and 0's at each current level employed and this information is then used to calculate the CC50 value (current required for 50% of the animals to show seizure behaviour)±standard error.
Test compound effects were also calculated as percentage change in CC50 from the vehicle control group.
Significant difference between drug-treated animals and controls were assessed according to Litchfield and Wilcoxon (1949).

[2] = Stability of Form B to compression (die press, XRPD); type: physicochemical; conditions: compression @ 370 MPa for 24 hrs; for Output Form (compression experiment): XRPD
Protocol: A die press was used to mimic the uniaxial stress experienced during formulation steps such as tableting. Form B (50 mg) was added to a KBr pellet die and compressed overnight at ˜370 MPa using a hydraulic press. The resultant solid disc was removed from the press and immediately analysed by XRPD.

[3] = Stability of Form B to humidity stress (XRPD); type: physicochemical; conditions: 40° C./75% RH for 8 days
Protocol: Form B material was exposed to high humidity conditions to determine stability on storage. Approximately 20 mg of Form B material was added to a vial and placed unsealed into a sealed cabinet with a relative humidity of 75% (controlled by a super-saturated salt solution) and a temperature of 40° C. for 8 days. The resultant material was analysed by XRPD.

[4] = Stability of Form B to milling (ball mill, XRPD); type: physicochemical; conditions: no solvent, mill at 25 Hz, 3 x 2 mins; for Output Form (milling experiment): XRPD
Protocol: A ball mill was used to mimic the effects of grinding that would be experienced during formulation steps such as dry blending and wet granulation. Form B (50 mg) was added to a milling chamber with an agate milling ball. Using a Retsch MM200 mixer mill, the material was milled for 6-10 minutes at a frequency of 25 Hz. Periodically, the milling was stopped and powder that adhered to the milling chamber was scraped down. The resultant milled material was analysed using XRPD.

[5] = Retest of Form C after storage at ambient conditions; type: physicochemical; conditions: 6 days storage at ambient conditions

In the case of `C=C(C)[C@@H]1CCC(C)=C[C@H]1c1c(O)cc(-c2cnn(C)c2)cc1O` [Compound 1, (1′R,2′R)-5′-methyl-4-(1-methyl-1H-pyrazol-4-yl)-2′-(prop-1-en-2-yl)-1′,2′,3′,4′-tetrahydro-[1,1′-biphenyl]-2,6-diol], the “% change from vehicle (CC50)” value ([1]; i.p., 2 mg/kg) is reported as 27%, the “CC50 +/- SEM” value ([1]; i.p., 2 mg/kg) is reported as 30.8 ± 1.0 mA and the “% change from vehicle (CC50)” value ([1]; i.p., 20 mg/kg) is reported as 116%. For the same molecule, the “CC50 +/- SEM” value ([1]; i.p., 20 mg/kg) was 52.5 ± 1.3 mA, the “% change from vehicle (CC50)” value ([1]; i.p., 200 mg/kg) was 712% and the “CC50 +/- SEM” value ([1]; i.p., 200 mg/kg) was 197.5 ± 20.4 mA. For the same molecule, the “Effect on MEST (in words)” value ([1]; i.p., 2, 20 and 200 mg/kg) was “dose-related increase in MEST” and the “CC50 value compared to vehicle (in words)” value ([1]; i.p., 30 minutes before the test, all three doses (2, 20, 200 mg/kg)) was “statistically significant”.

With `CN1C(=O)CN=C(c2ccccc2)c2cc(Cl)ccc21` [Diazepam, diazepam, reference compound] the “% change from vehicle (CC50)” value ([1]; i.p., 2.5 mg/kg) was 223%.

In the case of `C=C(C)[C@@H]1CCC(C)=C[C@H]1c1c(O)cc(-c2cnn(C)c2)cc1O` [Form B, (1′R,2′R)-5′-methyl-4-(1-methyl-1H-pyrazol-4-yl)-2′-(prop-1-en-2-yl)-1′,2′,3′,4′-tetrahydro-[1,1′-biphenyl]-2,6-diol], the “Result (compression experiment)” value [2] is reported as “solid”, the “Output Form (compression experiment)” value [2] is reported as “stable to compression” and the “Output Form (compression experiment)” value ([2]; listed as B) is reported as “B (slight disorder)”. For the same molecule, the “Result (humidity stress experiment)” value [3] was “solid”, the “Output Form (humidity stress experiment)” value ([3]; XRPD) was “stable to storage” and the “Result (milling experiment)” value [4] was “solid”. The “Output Form (milling experiment)” value [4] was “did not undergo a change in form” and the “Output Form (milling experiment)” value ([4]; listed as B) was “B (disordered)”.

For `C=C(C)[C@@H]1CCC(C)=C[C@H]1c1c(O)cc(-c2cnn(C)c2)cc1O` [Form C, (1′R,2′R)-5′-methyl-4-(1-methyl-1H-pyrazol-4-yl)-2′-(prop-1-en-2-yl)-1′,2′,3′,4′-tetrahydro-[1,1′-biphenyl]-2,6-diol], the Form after storage [5] was “converted to a Form A”.
